The structures appear in SMILES notation.

Data set [1] has as its system human HEK293 kidney cells. The conditions noted are these: cited from earlier work.
A further data set relates to IL-6. In words: MCD diet induced NASH in mice, IL-6 serum levels by ELISA. The data set is classed as in vivo, FVB/NJ mice. The following applies: same doses, 21 days, healthy 88, untreated dieted 2,912 pg/ml. From the text:
(§1) MCD diet in mice is considered a common gold standard model for the development of NASH. In this model, the absence of methionine leads to hepatic injury, inflammation, and fibrosis, and the deficiency of choline leads to macrovesicular steatosis. The MCD diet mouse model has been used in several studies to induce NASH with or without fibrosis.
(§2) NASH was induced in 12 weeks old Male FVB/NJ mice fed with the MCD diet for 21 days. Mice were divided into 5 study groups (12 mice in each group): • 1. Healthy animal group—No induction of NASH by MCD diet. • 2. MCD diet group—with no treatment by either CBD or Spilanthol. • 3. CBD alone group—MCD diet+daily CBD 50 mg/kg treatment. • 4. Spilanthol alone group—MCD diet+daily Spilanthol 10 mg/kg treatment. • 5. Combination treatment group—MCD diet+daily CBD 50 mg/kg and Spilanthol 10 mg/kg treatment.
(§3) Treatment was given via gavage daily for 21 days. […] Body weight was monitored every other day. At the end of day 21 the animals were sacrificed, and study readouts as described below were measured.
(§4) The following readouts were measured in the study as indicators for the therapeutic efficacy of the different treatments: • 1. […] Study Readouts
2. […] Pro-inflammatory cytokine IL-6 levels were also measured in the serum of the mice at the end of the 21 days of the study using a commercial ELISA kit (R&D systems, USA). […]
In general terms: An ELISA detects its analyte on a solid surface through an enzyme-linked reagent.

The next data set has as its system Ames test. The following applies: cited from earlier work.
Data set [2] concerns Dextran Sodium Sulphate (DSS) induced colitis. In words: DSS induced colitis in mice, changes in body weight. In kind it is in vivo, C57BL/6 mice. The following applies: CBD 50 mg/kg, Spilanthol 10 mg/kg, gavage daily for 8 days; for prevention of the weight loss effect (improvement in outcome vs vehicle): day 9; for average loss of baseline body weight: measured on day 9, vehicle 14.6%. The protocol: (§5) Colitis was induced in 10 weeks old female C57BL/6 mice (Harlan laboratories, Israel) by feeding them for 8 days with 1.5% (w/vol) DSS in the drinking water (Peer et al. Science, 319: 627-630, 2008; Dearling et al. IBD 2010; Dearling et al. IBD 2016), Kedmi et al. Nature Nanotechnology, 2018.
(§6) Mice were divided into 4 study groups (10 mice in each group): 1. Vehicle treatment group; 2. CBD 50 mg/kg treatment group; 3. Spilanthol 10 mg/kg treatment group; and 4. CBD 50 mg/kg+Spilanthol 10 mg/kg combination treatment group (herein “test combination group”). Treatment was given via gavage daily for 8 days. An additional group of 10 healthy mice served as a […] control arm. Body weight was monitored every other day. At the end of day 9 the animals were sacrificed and colon TNFα levels as well as the total length of the length of colon from the cecum to anus were assayed.
(§7) The following readouts were measured in the study as indicators for assessing the amelioration and the therapeutic efficacy of the different treatments: 1. Changes in body weight, 2. Colon's TNFα levels as measured by ELISA kits (R&D Systems, USA), 3. Total length of colon from cecum to anus, as measured by a blinded veterinary doctor.

Data set [3] shares this test system. In words: DSS induced colitis in mice, total length of colon from cecum to anus. The data set is classed as in vivo, C57BL/6 mice. The following applies: for average colon length: CBD 50 mg/kg, Spilanthol 10 mg/kg, gavage daily 8 days, day 9, healthy 7.66, vehicle 4.9 cm; for decrease of colon length from baseline (healthy mice): vehicle 36% decrease. On the procedure: as §5, §6, §7

For a further data set, the system named is TNFα. In words: DSS induced colitis in mice, colon TNFα levels by ELISA. The data set is classed as in vivo, C57BL/6 mice. The conditions noted are these: for average colon TNFα level: CBD 50 mg/kg, Spilanthol 10 mg/kg, gavage daily 8 days, day 9, healthy 486, vehicle 1,116 pg/ml; for reduction in the TNFα increase effect / reduction of colon TNFα level comparing to vehicle / increase of colon TNFα level from baseline (healthy mice): same doses; for reduction in the TNFα increase effect / reduction of colon TNFα level comparing to vehicle: day 9; for increase of colon TNFα level from baseline (healthy mice): vehicle 130% increase. On the procedure: as §5, §6, §7

The subject of data set [4] is aspartate aminotransferase (AST). In words: MCD diet induced NASH in mice, AST activity in serum. The data set is classed as in vivo, FVB/NJ mice. The following applies: CBD 50 mg/kg, Spilanthol 10 mg/kg, gavage daily for 21 days.
Text: as §1, §2
Treatment was given via gavage daily for 21 days. That is, the MCD diet and treatment were initiated simultaneously, so as to examine the treatments' ability both to prevent and treat NASH. Body weight was monitored every other day. At the end of day 21 the animals were sacrificed, and study readouts as described below were measured.
The following readouts were measured in the study as indicators for the therapeutic efficacy of the different treatments: • 1. 1. Liver enzymes activity levels in the serum (ALT and AST). • 2. 2. […] Study Readouts […]

In data set [5] the test system is alanine aminotransferase (ALT). In words: MCD diet induced NASH in mice, ALT activity in serum. The data set is classed as in vivo, FVB/NJ mice. The conditions noted are these: CBD 50 mg/kg, Spilanthol 10 mg/kg, gavage daily for 21 days, MCD elevation 515 SFU/ml.
Text: as §1
NASH was induced in 12 weeks old Male FVB/NJ mice fed with the MCD diet for 21 days. Mice were divided into 5 study groups (12 mice in each group): • 1. Healthy animal group—No induction of NASH by MCD diet. • 2. MCD diet group—with no treatment by either CBD or Spilanthol. • 3. CBD alone group—MCD diet+daily CBD 50 mg/kg treatment. • 4. Spilanthol alone group—MCD diet+daily Spilanthol 10 mg/kg treatment. • 5. […]
as §3, §4
1. Liver enzyme activity levels in serum: The average level of alanine aminotransferase (ALT) activity in the serum of the mice in the different treatment groups was measured using a biochemical autoanalyzer following 21 days of the. […]

Data set [6] deals with nitric oxide (NO) production. The following applies: RAW 264.7 murine macrophages; cited from earlier work.
Data set [7] has as its system RAW 264.7 murine macrophages. The conditions noted are these: concentrations up to 40 μg/ml; cited from earlier work.
Data set [8] concerns NASH induced by a methionine and choline deficient (MCD) diet. In words: MCD diet induced NASH in mice, liver weight. The following applies: same doses, 21 days. In kind it is in vivo, FVB/NJ mice.
Text: as §1, §2, §3, §4
3. […] The total liver weight was also measured for all mice following the 21 days of the study. […] The average liver weight as measured in the not dieted mice group (healthy) was 1.22 grams. […]

The next data set has as its system ICR mice. The following applies: acute toxicity; cited from earlier work.

Take `C/C=C/C=C\CC/C=C/C(=O)NCC(C)C` [Spilanthol, (2E,6Z,8E)-N-isobutyl-2,6,8-decatrienamide]: the “cytotoxic effect, mean inhibitory concentration (IC50)” value in [1] was 260 µg/mL. Besides, the “reduction of the elevated IL-6 serum levels” value in the data set on IL-6 is “ineffective”. In addition, the mutagenic effects entry in the data set with Ames test (Ames test) was “No mutagenic effects”. Moreover, the antimutagenic effects result with Ames test (at 25 and 50 μg/ml) is recorded as “antimutagenic effects of affinin were observed”. Besides, in data set [2], the “prevention of the weight loss effect (improvement in outcome vs vehicle)” value worked out at 0% and the “average loss of baseline body weight” value stood at 14.6%. In [3], the average colon length is 4.9 cm. Also, the “decrease of colon length from baseline (healthy mice)” value in data set [3] (same doses) came to 36%. Moreover, the “improvement in outcome (colon shortening effect)” value in [3] (same doses, vs vehicle) came to 0%. Moreover, in the data set with TNFα, the “average colon TNFα level” value was 980 pg/mL, the “reduction in the TNFα increase effect” value turned out to be 21.5%, the “reduction of colon TNFα level comparing to vehicle” value worked out at 136 pg/mL and the “increase of colon TNFα level from baseline (healthy mice)” value is on record as 101%. Besides, the “reduction in AST enzyme activity levels in serum” value in data set [4] is “neither CBD alone, nor Spilanthol alone has any significant effect”. Also, the “reduction of the elevated ALT serum activity levels” value in [5] is “no effect”. Further, in [6], the “effect on nitric oxide (NO) production” value is listed as “stimulatory effect”. In addition, the cytotoxic effects result in [7] was “No cytotoxic effects”. The “reduction in liver weight loss” value in [8] is on record as “no effect”. Also, the “median lethal dose (LD50)” value with ICR mice is recorded as 113 mg/kg.
Consider `C=C(C)C1CCC(C)=CC1c1c(O)cc(CCCCC)cc1O` (stereo not drawn) [CBD, 2-[3-methyl-6-(1-methylethenyl)-2-cyclohexen-1-yl]-5-pentyl-1,3-benzenediol], for which, in the data set with IL-6, the “reduction of the elevated IL-6 serum levels” value turned out to be 13.5%. In data set [2], the “prevention of the weight loss effect (improvement in outcome vs vehicle)” value turned out to be 44% and the “average loss of baseline body weight” value is listed as 8.2%. In data set [3], the average colon length is 5.31 cm. In data set [3] (same doses), the “decrease of colon length from baseline (healthy mice)” value is recorded as 30.7%. In [3] (same doses, vs vehicle), the “improvement in outcome (colon shortening effect)” value stood at 14.9% and the “reduction of the colon shortening effect” value was determined as 0.41 cm. In addition, in the data set on TNFα, the “average colon TNFα level” value was 928 pg/mL, the “reduction in the TNFα increase effect” value was 30%, the “reduction of colon TNFα level comparing to vehicle” value is 188 pg/mL and the “increase of colon TNFα level from baseline (healthy mice)” value was determined as 91%. Moreover, the “reduction in AST enzyme activity levels in serum” value in data set [4] is recorded as “neither CBD alone, nor Spilanthol alone has any significant effect”. The “reduction of the elevated ALT serum activity levels” value in data set [5] came to 16.5%. The “reduction in liver weight loss” value in data set [8] is listed as 38.3%.

The values above are taken from patent publication US12023306B2, “Compositions comprising a cannabinoid and spilanthol” (priority 2019, dated 2024).
